Patent US12077503B2, “Substituted cyclic amides and their use as herbicides” (FMC CORPORATION, priority 2015, dated 2024)

Key:
Format in all cases: in vivo
[1] = test system: pigweed (Amaranthus retroflexus); assay: Test A preemergence; settings: Preemergence
[2] = test system: barnyardgrass (Echinochloa crus-galli); assay: Test A preemergence; settings: Preemergence
How it was run: (§1)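 Compounds were formulated in a non-phytotoxic solvent mixture with surfactant and applied as a preemergence directed soil spray after seeding, or sprayed postemergence over plants 2 to 10 cm tall at the one- to two-leaf stage. Evaluation after about 10 d compared treated with untreated controls, using a scale from 0 (no effect) to 100 (complete control).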

Kochia (Kochia scoparia) [3] = assay: Test A preemergence; settings: Preemergence
How it was run: as §1

[4] = test system: giant foxtail (Setaria faberii); assay: Test A preemergence; settings: Preemergence
How it was run: as §1

[5] = test system: ryegrass, Italian (Italian ryegrass, Lolium multiflorum); assay: Test A preemergence; settings: Preemergence
How it was run: as §1

[6] = test system: ragweed (common ragweed, Ambrosia elatior); assay: Test A preemergence; settings: Preemergence
How it was run: as §1

[7] = test system: barnyardgrass (Echinochloa crus-galli); assay: Test B flooded paddy test; settings: Flood, 250 g ai/ha; 0 to 100 scale where 0 is no effect and 100 is complete control; 13 to 15 d
How it was run: (§2)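 Greenhouse paddy pots with 2-leaf stage plants received compound by direct addition to floodwater 3 cm deep, kept at that level. Scored visually at 13–15 d versus controls (0 no effect; 100 complete control).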

[8] = test system: ducksalad (Heteranthera limosa); assay: Test B flooded paddy test; settings: Flood, 250 g ai/ha; 0 to 100 scale where 0 is no effect and 100 is complete control; 13 to 15 d
How it was run: as §2

[9] = test system: sedge, umbrella (small-flower umbrella sedge, Cyperus difformis); assay: Test B flooded paddy test; settings: Flood, 250 g ai/ha; 0 to 100 scale where 0 is no effect and 100 is complete control; 13 to 15 d
How it was run: as §2

rice (Oryra sativa) = assay: Test B flooded paddy test; settings: Flood, 250 g ai/ha; 0 to 100 scale where 0 is no effect and 100 is complete control; 13 to 15 d
How it was run: as §2

[10] = test system: pigweed (Amaranthus retroflexus); assay: Test A postemergence
How it was run: as §1

[11] = test system: barnyardgrass (Echinochloa crus-galli); assay: Test A postemergence
How it was run: as §1

corn (Zea mays) = assay: Test A postemergence
How it was run: as §1

Kochia (Kochia scoparia) [12] = assay: Test A postemergence
How it was run: as §1

[13] = test system: giant foxtail (Setaria faberii); assay: Test A postemergence
How it was run: as §1

[14] = test system: Galium (catchweed bedstraw, Galium aparine); assay: Test A postemergence
How it was run: as §1

[15] = test system: blackgrass (Alopecurus myosuroides); assay: Test A postemergence
How it was run: as §1

[16] = test system: wheat (Triticum aestivum); assay: Test A postemergence
How it was run: as §1

[17] = test system: ryegrass, Italian (Italian ryegrass, Lolium multiflorum); assay: Test A postemergence
How it was run: as §1

[18] = test system: ragweed (common ragweed, Ambrosia elatior); assay: Test A postemergence
How it was run: as §1

[19] = 125 g ai/ha, visual injury after approximately 10 d, 0 to 100 scale where 0 is no effect and 100 is complete control
[20] = 500 g ai/ha, visual injury approx. 10 d
[21] = 125 g ai/ha, postemergence, visual rating after approx. 10 d, 0 to 100 scale (0 no effect, 100 complete control)
[22] = Postemergence, 500 g ai/ha, 0 to 100 scale where 0 is no effect and 100 is complete control

O=C1NCC(c2cccc(C(F)(F)F)c2F)C1C(=O)Nc1cccc(F)c1F (stereo not drawn) [Compound 591]
35: Plant response rating, Rice (rice (Oryra sativa))
50: Plant response rating, Galium [14, 22] | Plant response rating, Blackgrass [15, 21] | Plant response rating, Wheat [16, 21]
65: Plant response rating, Barnyardgrass [7]
70: Plant response rating, Pigweed [10, 22] | Plant response rating, Corn (corn (Zea mays); [21]) | Plant response rating, Ryegrass, Italian [17, 22]
60: Kochia plant response rating (0 to 100 scale, 0 is no effect, 100 is complete control) (Kochia (Kochia scoparia) [3]; [20]) | Ryegrass, Italian plant response rating (0 to 100 scale, 0 is no effect, 100 is complete control) [5, 20] | Ragweed plant response rating (0 to 100 scale, 0 is no effect, 100 is complete control) [6, 20] | Plant response rating, Kochia (Kochia (Kochia scoparia) [12]; [22]) | Plant response rating, Blackgrass [15, 22] | Plant response rating, Wheat [16, 22]
0: Plant response rating, Pigweed [1, 19] | Plant response rating, Ragweed [6, 19] | Plant response rating, Sedge, Umbrella [9] | Plant response rating, Ryegrass, Italian [17, 21] | Plant response rating, Ragweed [18, 21]
20: Plant response rating, Ryegrass, Italian [5, 19] | Plant response rating, Pigweed [10, 21] | Plant response rating, Kochia (Kochia (Kochia scoparia) [12]; [21])
100: Plant response rating, Ducksalad [8]
40: Pigweed plant response rating (0 to 100 scale, 0 is no effect, 100 is complete control) [1, 20] | Plant response rating, Galium [14, 21]
80: Plant response rating, Corn (corn (Zea mays); [22])
30: Plant response rating, Kochia (Kochia (Kochia scoparia) [3]; [19]) | Plant response rating, Ragweed [18, 22]
90: Plant response rating, Barnyardgrass [2, 19] | Barnyardgrass plant response rating (0 to 100 scale, 0 is no effect, 100 is complete control) [2, 20] | Plant response rating, Foxtail, Giant [4, 19] | Foxtail, Giant plant response rating (0 to 100 scale, 0 is no effect, 100 is complete control) [4, 20] | Plant response rating, Barnyardgrass [11, 21] | Plant response rating, Barnyardgrass [11, 22] | Plant response rating, Foxtail, Giant [13, 21] | Plant response rating, Foxtail, Giant [13, 22]
